Data reported in ChEMBL document CHEMBL4152377, “Design and Activity of Specific Hypoxia-Inducible Factor-2α (HIF-2α) Inhibitors for the Treatment of Clear Cell Renal Cell Carcinoma: Discovery of Clinical Candidate ( S)-3-((2,2-Difluoro-1-hydroxy-7-(methylsulfonyl)-2,3-dihydro-1 H-inden-4-yl)oxy)-5-fluorobenzonitrile (PT2385)” (J Med Chem, 2018).
One block for each compound: values may come before it. The source made the active and inactive calls. The rule behind the calls is not given here.

Legend:
[1] = target: T1, Endothelial PAS domain-containing protein 1 (Homo sapiens, UniProt Q99814)
[2] = Protein binding in mouse plasma at 10 uM after 4 hrs by LC-MS/MS analysis; assay type: ADME, cell-free; settings: read-out: PPB (converted)
[3] = Plasma concentration in mouse after 12 hrs; assay type: ADME, cell-free
[4] = Intrinsic clearance in mouse liver microsomes at 1 uM measured up to 30 mins by LC-MS/MS analysis; assay type: ADME, microsome; settings: read-out: CLH
[5] = Apparent permeability across apical to basolateral side in MDCK-MDR1 cells at 1 uM after 1 hr by LC/MS/MS analysis; assay type: ADME, cell-based, Canis lupus familiaris; settings: dog
[6] = Clearance in CD1 mouse at 3 mg/kg, iv by UPLC analysis; assay type: ADME, organism-based; settings: in vivo
[7] = AUCt in CD1 mouse at 10 mg/kg, po by UPLC analysis; assay type: ADME, organism-based; settings: in vivo
[8] = Volume of distribution at steady state in CD1 mouse at 3 mg/kg, iv by UPLC analysis; assay type: ADME, organism-based; settings: in vivo, read-out: Vdss
[9] = Half life in CD1 mouse at 10 mg/kg, po by UPLC analysis; assay type: ADME, organism-based; settings: in vivo
[10] = Oral bioavailability in CD1 mouse at 10 mg/kg by UPLC analysis; assay type: ADME, organism-based; settings: in vivo
[11] = Clearance in Sprague-Dawley rat at 3 mg/kg, iv by UPLC analysis; assay type: ADME, organism-based; settings: in vivo
[12] = AUCt in Sprague-Dawley rat at 10 mg/kg, po via gavage by UPLC analysis; assay type: ADME, organism-based; settings: in vivo
[13] = Volume of distribution at steady state in Sprague-Dawley rat at 3 mg/kg, iv by UPLC analysis; assay type: ADME, organism-based; settings: in vivo, read-out: Vdss
[14] = Half life in Sprague-Dawley rat at 10 mg/kg, po via gavage by UPLC analysis; assay type: ADME, organism-based; settings: in vivo
[15] = Oral bioavailability in Sprague-Dawley rat at 10 mg/kg administered via gavage by UPLC analysis; assay type: ADME, organism-based; settings: in vivo
[16] = test system: Mus musculus; assay: In vivo inhibition of HIF-2alpha in SCID/Biege mouse xenografted with human 786-O cells assessed as reduction in CCND1 mRNA levels at 10 mg/kg, po bid for 3 days and measured after 12 hrs post last dose by qRT-PCR analysis; assay type: functional, organism-based
[17] = test system: Mus musculus; assay: In vivo inhibition of HIF-2alpha in SCID/Biege mouse xenografted with human 786-O cells assessed as reduction in VEGFA mRNA levels at 10 mg/kg, po bid for 3 days and measured after 12 hrs post last dose by qRT-PCR analysis; assay type: functional, organism-based
[18] = test system: 786-0; assay: Antitumor activity against human 786-O cells xenografted in SCID/Biege mouse assessed as tumor regression at 10 mg/kg, po bid for 21 days; assay type: functional, organism-based
[19] = test system: Mus musculus; assay: Toxicity in SCID/Biege mouse xenografted with human 786-O cells assessed as morbidity at 10 mg/kg, po bid for 21 days; assay type: organism-based; settings: in vivo, 504 h
[20] = test system: Mus musculus; assay: Toxicity in SCID/Biege mouse xenografted with human 786-O cells assessed as mortality at 10 mg/kg, po bid for 21 days; assay type: organism-based; settings: in vivo, 504 h
[21] = test system: Mus musculus; assay: Toxicity in SCID/Biege mouse xenografted with human 786-O cells assessed as effect on body weight at 10 mg/kg, po bid for 21 days; assay type: organism-based; settings: in vivo, 504 h
[22] = test system: Mus musculus; assay: Minimum drug level in SCID/Biege mouse xenografted with human 786-O cells at 10 mg/kg, po bid for 3 days and measured after 12 hrs post last dose by LC-MS/MS analysis; assay type: ADME, organism-based; settings: in vivo
[23] = test system: 786-0; assay: In vivo inhibition of HIF-2alpha in SCID/Biege mouse xenografted with human 786-O cells assessed as reduction in tumor derived VEGFA protein levels at 10 mg/kg, po bid for 3 days and measured after 12 hrs post last dose by ELISA; assay type: functional, organism-based
[24] = target: T1, Endothelial PAS domain-containing protein 1; remark: listed apart in the source
[25] = target: T1, Endothelial PAS domain-containing protein 1; assay: Antagonist activity at HIF-2alpha in human 786-O cells assessed as reduction in VEGFA concentration after 24 hrs by ELISA; assay type: cell-based
[26] = Efflux ratio of apparent permeability in MDCK-MDR1 cells at 1 uM after 1 hr by LC/MS/MS analysis; assay type: ADME, cell-based, Canis lupus familiaris; settings: dog
[27] = target: T1, Endothelial PAS domain-containing protein 1; assay: Antagonist activity at HIF-2alpha in human 786-O cells assessed as free plasma adjusted EC50 for reduction in VEGFA concentration after 24 hrs by ELISA; assay type: cell-based

T1 sequence (Q99814 whole entry, the tested form may be a part): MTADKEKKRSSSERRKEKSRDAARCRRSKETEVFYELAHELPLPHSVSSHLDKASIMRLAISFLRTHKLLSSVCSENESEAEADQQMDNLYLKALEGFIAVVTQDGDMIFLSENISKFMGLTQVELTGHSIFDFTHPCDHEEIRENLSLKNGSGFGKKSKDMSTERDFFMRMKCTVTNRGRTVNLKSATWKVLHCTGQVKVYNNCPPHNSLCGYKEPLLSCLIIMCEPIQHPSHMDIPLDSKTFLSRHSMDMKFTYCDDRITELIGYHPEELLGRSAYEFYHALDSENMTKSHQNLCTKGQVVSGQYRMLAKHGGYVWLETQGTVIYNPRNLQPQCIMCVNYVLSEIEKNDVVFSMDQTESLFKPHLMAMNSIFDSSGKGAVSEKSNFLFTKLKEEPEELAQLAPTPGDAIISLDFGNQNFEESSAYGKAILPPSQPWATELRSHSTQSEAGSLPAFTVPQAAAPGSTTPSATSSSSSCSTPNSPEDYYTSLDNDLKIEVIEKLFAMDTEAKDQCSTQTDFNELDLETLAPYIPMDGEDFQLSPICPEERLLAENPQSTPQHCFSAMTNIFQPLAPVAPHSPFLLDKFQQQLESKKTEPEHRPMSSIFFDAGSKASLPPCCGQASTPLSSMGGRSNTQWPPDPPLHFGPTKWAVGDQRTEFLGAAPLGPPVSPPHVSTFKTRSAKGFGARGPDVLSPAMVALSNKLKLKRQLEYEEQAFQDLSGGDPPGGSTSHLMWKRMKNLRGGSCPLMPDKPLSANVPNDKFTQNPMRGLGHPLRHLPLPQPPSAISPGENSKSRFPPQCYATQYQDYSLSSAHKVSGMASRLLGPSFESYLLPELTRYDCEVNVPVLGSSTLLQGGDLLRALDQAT

SMILES: CC(O)c1ccc(Nc2cc(F)cc(Cl)c2)c([N+](=O)[O-])c1 (stereo not drawn)
IC50 [1]: 12700 nM

SMILES: COC(=O)c1cc(S(=O)(=O)C(F)(F)F)ccc1Oc1cc(F)cc(Cl)c1
IC50 [1]: 52900 nM

SMILES: NC(=O)c1cc(S(=O)(=O)C(F)(F)F)ccc1Oc1cc(F)cc(Cl)c1
IC50 [1]: 22600 nM

SMILES: N#Cc1cc(F)cc(Oc2ccc(S(=O)(=O)C(F)F)c3c2CC(F)(F)[C@H]3O)c1
fraction unbound at 4 h, 10 µM [2]: 0.06
concentration at 12 h [3]: 380 nM
CLint scaled at 1 µM [4]: 32.2 mL/min/kg
Papp A→B at 1 h, 1 µM [5]: 2.84 ×10⁻⁶ cm/s
clearance [6]: 34.3 mL/min/kg
AUC(0-t) [7]: 7.3 µM·h
Vd [8]: 7.4 L/kg
half-life [9]: 7.3 h
bioavailability [10]: 67%
clearance [11]: 57.7 mL/min/kg
AUC(0-t) [12]: 0.39 µM·h
Vd [13]: 5.55 L/kg
half-life [14]: 5.4 h
bioavailability [15]: 6%
inhibition [16]: Active
inhibition [17]: Active
Activity [18]: Active
Activity [19]: Non-Toxic
Activity [20]: Non-Toxic
Activity [21]: Non-Toxic
Drug uptake [22]: Active
inhibition [23]: Active

SMILES: O=C(O)c1cc(S(=O)(=O)C(F)(F)F)ccc1Oc1cc(F)cc(Cl)c1
IC50 [1]: 44400 nM

SMILES: N#Cc1cc(F)cc(Oc2ccc(S(=O)(=O)C(F)F)c(C(=O)O)c2C(F)F)c1
IC50 [1]: > 100000 nM

SMILES: N#Cc1cc(F)cc(Oc2ccc(S(=O)(=O)CF)c3c2CC(F)(F)[C@H]3O)c1
EC50 [25]: 20 nM
fraction unbound at 4 h, 10 µM [2]: 0.11
concentration at 12 h [3]: 1100 nM
CLint scaled at 1 µM [4]: 26.9 mL/min/kg
Papp A→B at 1 h, 1 µM [5]: 2.73 ×10⁻⁶ cm/s
efflux ratio at 1 h, 1 µM [26]: 1.04
clearance [6]: 32.3 mL/min/kg
AUC(0-t) [7]: 9.46 µM·h
Vd [8]: 12.6 L/kg
half-life [9]: 5.5 h
bioavailability [10]: 91%
clearance [11]: 57.6 mL/min/kg
AUC(0-t) [12]: 2.14 µM·h
Vd [13]: 6.15 L/kg
half-life [14]: 2.9 h
bioavailability [15]: 32%
inhibition [16]: Active
inhibition [17]: Active
Activity [18]: Active
Activity [19]: Non-Toxic
Activity [20]: Non-Toxic
Activity [21]: Non-Toxic
Drug uptake [22]: Active
EC50 [27]: 182 nM
inhibition [23]: Active
EC50 [24]: 9 nM

SMILES: O=S1(=O)c2ccc(Oc3cc(F)cc(Cl)c3)c(C(F)(F)F)c2C(O)C1(F)F (stereo not drawn)
EC50 [24]: 100 nM

SMILES: N#Cc1cc(F)cc(Oc2ccc(S(=O)(=O)C(F)(F)F)c3c2CC(F)(F)[C@H]3O)c1
EC50 [24]: < 5 nM

Other lines, results leading:

IC50 [1]: 4200 nM
SMILES: COCc1c(S(=O)(=O)C(F)F)ccc(Oc2cc(F)cc(Cl)c2)c1Cl

IC50 [1]: 16 nM
SMILES: O=[N+]([O-])c1cc(S(=O)(=O)C(F)F)ccc1Nc1cc(F)cc(Cl)c1

IC50 [1]: 280 nM
SMILES: O=[N+]([O-])c1cc(S(=O)(=O)CF)ccc1Nc1cc(F)cc(Cl)c1

IC50 [1]: 140 nM
EC50 [24]: 3400 nM
SMILES: O=S(=O)(c1ccc(Oc2cc(F)cc(Cl)c2)c(Cl)c1)C(F)(F)F

IC50 [1]: 280 nM
SMILES: O=[N+]([O-])c1cc(C(F)(F)F)ccc1Nc1cc(F)cc(Cl)c1

IC50 [1]: 34 nM
EC50 [24]: 11600 nM
SMILES: N#Cc1cc(S(=O)(=O)C(F)(F)F)ccc1Oc1cc(F)cc(Cl)c1

IC50 [1]: 4400 nM
SMILES: CS(=O)(=O)c1ccc(Oc2cc(F)cc(Cl)c2)c(Br)c1

IC50 [1]: 32 nM
SMILES: O=[N+]([O-])c1cc(S(=O)(=O)C(F)(F)F)ccc1Oc1cc(F)cc(Cl)c1

IC50 [1]: 700 nM
SMILES: NCc1c(S(=O)(=O)C(F)F)ccc(Oc2cc(F)cc(Cl)c2)c1Br

IC50 [1]: 2400 nM
EC50 [24]: 7200 nM
SMILES: O=S1(=O)CC(O)c2c1ccc(Oc1cc(F)cc(Cl)c1)c2Br (stereo not drawn)
